Two substances from US8298522B1, “Methods of modulating MUC1 expression to inhibit inflammation” (priority 2005, dated 2012) can be followed below.

One assay deals with MUC1 transcription. The experiment in a line: Trypsin-induced MUC1 transcription compared with NE. The format is cell-based.
The subject of assay [1] is Sp1 binding to the −99/−90 segment of the MUC1 promoter. The experiment in a line: EMSA of Sp1 binding to the MUC1 promoter segment. The arrangement: species or system human. To be noted: A549 nuclear extracts, 100 nM NE 0-120 min. As to the method:
Referring now to FIG. 16, NE enhances the binding of Sp1 to the −99/−90 segment in the MUC1 promoter. Confluent A549 cells were treated with vehicle control (A) or 100 nM NE (B) for 0, 10, 20, 30, 60, or 120 min. Cells were lysed and nuclear extracts were incubated with or without 100-fold molar excess of unlabeled probe, poly(dIdC) as a non-specific competitor, or Sp1 antibody for 30 min on ice, and then incubated with a [γ-^32P]-labeled oligonucleotide corresponding to the human MUC1 promoter between nucleotides −104 and −83. DNA-protein complexes were resolved on 4.5% polyacrylamide gels and analyzed by autoradiography.
Electrophoretic mobility shift assay (EMSA). Confluent A549 cells were treated with 100 nM NE for 0, 10, 20, 30, 60, or 120 min. Following treatment, nuclear extracts were prepared as previously described (31). […]
Protein concentrations were measured by the procedure of Bradford (8). […] The DNA-protein complexes were resolved on 4.5% polyacrylamide gels and analyzed by autoradiography as described in Lee et al. 2004, Differential expression of mu-opioid receptor gene in CXBK and B6 mice by Sp1, Mol Pharmacol 66: 1580-1584.
On the technique in general: In EMSA bound probe runs differently from free probe, usually more slowly.

The next assay relates to MUC1. Briefly: Degradation of MUC1 in spent medium aliquots by NE (ELISA). The format is biochemical, human. The settings on record: spent medium of A549 cells, 100 nM NE, 24 hr. As to the method:
To verify the ability of NE to degrade MUC1, aliquots of a spent medium sample containing MUC1 molecules were incubated for 24 hr in the presence of NE and the amounts of MUC1 measured by ELISA.
A general note: ELISA stands for enzyme-linked immunosorbent assay.

In the next assay the test system is MUC1 promoter. Briefly: MUC1 promoter-luciferase reporter assay in A549 cells. To be noted: MUC1-pGL2b-transfected A549 cells, 100 nM NE, 24 hr. A general note: Reporter assays use an easily measured gene product as a stand-in for the process of interest.
For assay [2], the system named is MUC1 protein in A549 cells.
Procedure: Confluent A549 cells were incubated in the presence or absence of 5.0 μg/ml of actinomycin (AcD) or 10 μg/ml of cycloheximide (Chx) for 1 hr and either non-treated or treated for 24 hr with 100 nM of NE. MUC1 protein levels in cell lysates (A) and spent media (B) were measured by ELISA. Each bar represents the mean±SEM (n=3). […] (C) Aliquots of spent media obtained from confluent A549 cells were non-treated (0 hr) or treated for 24 hr with 100 nM NE or vehicle control and MUC1 levels in the spent media determined by ELISA. Each bar represents the mean±SEM (n=3).
A549 cells were seeded at 5.0×10^4 cells/well in 24-well plates in Dulbecco's Modified Eagle Medium (DMEM) containing 10% fetal bovine serum (FBS), 100 U/ml penicillin, and 100 μg/ml streptomycin (all from Invitrogen, Carlsbad, Calif.) and incubated at 37° C. in a humidified CO2 incubator. Confluent monolayers were washed with serum-free DMEM and treated with 100 nM (2.6 U/ml) NE or vehicle control (PBS) for 24 hr. In some experiments, the cells were pretreated for 1 hr with 5.0 μg/ml of actinomycin D or 10 μg/ml of cycloheximide prior to NE treatment. Following treatment, cell-conditioned media were collected, and the cells were washed with PBS and lysed with 500 μl/well of PBS containing 1.0% Triton X-100, 1.0% sodium deoxycholate, 1.0% protease inhibitor cocktail, and 2.0 mM phenylmethylsulfonyl fluoride (PMSF). Lysates and conditioned media were incubated for 20 min at 80° C. to inactivate residual NE, insoluble material removed by centrifugation at 14,000×g for 10 min at 4° C., and protein concentrations measured by the procedure of Bradford using bovine serum albumin as standard.
ELISA. A549 cell lysates or cell-conditioned culture media were centrifuged at 10,000×g for 10 min at 4° C., added in triplicate to 96-well ELISA plates (MaxiSorb™, Nalge Nunc, Rochester, N.Y.), and incubated overnight at 4° C. Wells were blocked for 1 hr at room temperature (about 22° C.) with PBS, pH 7.0, containing 10 mg/ml BSA and 50 mg/ml sucrose and washed with PBS containing 0.05% Tween 20 (PBS-T). The samples were reacted for 2 hr at room temperature with 200 μg/ml of primary MUC1 antibody (GP1.4), washed with PBS-T, reacted for 2 hr at room temperature with 200 μg/ml of secondary antibody (peroxidase-conjugated goat antimouse IgG) (KPL, Gaithersburg, Md.), and washed with PBS-T. Bound antibodies were detected with tetramethylbenzidine substrate (SureBlue™, KPL), the substrate reaction stopped with 1 N HCl, and absorbencies at 450 nm measured using a microplate spectrophotometer (Dexall, Gaithersburg, Md.).
In the next assay the test system is MUC1 mRNA. Briefly: Effect of NE on MUC1 mRNA expression and stability in A549 cells (real time RT-PCR). The format is cell-based, human. As for the experimental part:
Referring now to FIG. 11. […] MUC1 mRNA levels were measured by real time RT-PCR and normalized to GAPDH mRNA levels. Each data point represents the mean±SEM (n=3).
Effect of NE on MUC1 mRNA expression. A549 cells were seeded in DMEM plus 10% FBS in 24-well plates at 5.0×10^4 cells/well, cultured to confluence for 24 hr at 37° C., and treated for 24 hr with various concentrations of NE (0, 10, 25, 50, 100, or 150 nM) or vehicle control. […] At the end of each chase period, the cells were washed with PBS and MUC1 transcripts quantified by real time RT-PCR.
Real time RT-PCR. Total RNA was isolated using RNeasy (Qiagen, Valencia, Calif.) and 2.0 μg was reverse transcribed using the iScript cDNA Synthesis kit (BioRad, Hercules, Calif.) in a total volume of 20 μl. Real time PCR was carried out using the Taqman probes and iQ™ Supermix (BioRad) according to the manufacturer's instructions. Briefly, 2.0 μl of cDNA or control plasmid was used as template for amplification in the iCycler (BioRad) with 200 nM of MUC1 or GAPDH (internal control) primers and probes. […] The CT value was defined as the number of PCR cycles required for the specific fluorescence signal to exceed the detection threshold value set by the software installed in the iCycler. […] The levels of MUC1 and GAPDH mRNAs were calculated from the standard curves and the expression of MUC1 transcripts was normalized to GAPDH transcripts.

Take Trypsin: the “activity in inducing MUC1 transcription relative to that of NE” value in the assay with MUC1 transcription was “less than 10%”.

With neutrophil elastase, in assay [1], the “time of maximum Sp1 binding to the MUC1 promoter segment in the presence of NE” value was found to be 60 min. In the assay with MUC1, the “MUC1 remaining in spent medium aliquots after incubation with NE” value is “no detectable amounts of MUC1”. Besides, in the assay with MUC1 promoter, the “MUC1 promoter luciferase activity compared with vehicle control” value is reported as “significantly higher luciferase activity”. In assay [2] (A549 cells, 100 nM NE 24 hr, with or without AcD or Chx pretreatment), the “MUC1 in spent media compared with the control group” value is 45%. Also, the “increase of MUC1 levels in cell lysates compared with 24 hr control” value in assay [2] (confluent A549 cells, 100 nM NE, 24 hr) came to 33%. Further, the “effect on MUC1 mRNA stability” value in the assay with MUC1 mRNA (100 nM NE 24 hr, chase with 5.0 μg/ml actinomycin D 0-24 hr) is “does not alter MUC1 mRNA stability”. The “MUC1 mRNA levels with increasing doses and time” value with MUC1 mRNA (NE 0-150 nM, real time RT-PCR) was “progressively higher MUC1 mRNA levels”.
